Our source for the IC50 values is US8754071B2 (priority 2011, dated 2014).

The assay deals with T1, c-kit (Homo sapiens, UniProt P10721).
T1 construct: human Mo7e cells which endogenously express c-kit; endogenous in cells; host or cells: human Mo7e cells (promegakaryocytic leukemia line), stimulated with human recombinant SCF
As to the kind of experiment: Mo7e cell proliferation assay (SCF dependent proliferation). To be noted: Table 2; human Mo7e cells stimulated with SCF, 48 hours, CellTiter Glo; 1% FBS; read-out: c-kit (Mo7e). The class given is cell-based. In a few lines: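 Human Mo7e cells with endogenous c-kit, proliferation driven by SCF, 384-well format. After 48 h at 37 °C viability read by CellTiter-Glo luminescence. IC50 taken as concentration giving response halfway between baseline and maximum.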
In general terms: Cellular ATP, detected with luciferase, serves as a proxy for viable cell number.

T1 sequence (P10721 26-976): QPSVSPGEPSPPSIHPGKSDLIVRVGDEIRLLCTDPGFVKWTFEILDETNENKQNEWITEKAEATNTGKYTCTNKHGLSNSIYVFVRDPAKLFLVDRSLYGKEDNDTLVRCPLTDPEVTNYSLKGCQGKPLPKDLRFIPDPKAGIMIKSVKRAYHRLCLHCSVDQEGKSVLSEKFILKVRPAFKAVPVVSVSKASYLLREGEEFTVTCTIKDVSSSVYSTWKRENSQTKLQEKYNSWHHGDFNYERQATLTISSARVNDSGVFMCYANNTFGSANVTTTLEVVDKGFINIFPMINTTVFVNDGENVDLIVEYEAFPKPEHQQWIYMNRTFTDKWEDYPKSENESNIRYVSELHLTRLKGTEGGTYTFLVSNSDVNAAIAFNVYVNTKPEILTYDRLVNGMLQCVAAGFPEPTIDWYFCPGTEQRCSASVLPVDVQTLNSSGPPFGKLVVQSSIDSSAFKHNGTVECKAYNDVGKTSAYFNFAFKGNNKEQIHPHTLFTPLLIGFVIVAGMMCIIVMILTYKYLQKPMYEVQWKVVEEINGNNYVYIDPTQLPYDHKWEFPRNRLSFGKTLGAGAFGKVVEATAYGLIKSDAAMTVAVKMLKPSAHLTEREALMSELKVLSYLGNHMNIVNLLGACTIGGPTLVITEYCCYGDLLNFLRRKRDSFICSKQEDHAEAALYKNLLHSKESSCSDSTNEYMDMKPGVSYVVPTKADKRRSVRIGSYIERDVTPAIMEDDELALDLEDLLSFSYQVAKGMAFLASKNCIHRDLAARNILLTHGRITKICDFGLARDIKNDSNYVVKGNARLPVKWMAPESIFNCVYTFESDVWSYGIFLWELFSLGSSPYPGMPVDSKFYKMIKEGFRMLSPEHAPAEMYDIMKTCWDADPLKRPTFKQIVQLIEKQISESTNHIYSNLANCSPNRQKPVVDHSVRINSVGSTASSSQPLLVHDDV

`Cc1ccc(-c2noc(C3C[C@@H](O)CN3)n2)cc1NC(=O)c1cnc2ccc(F)cn12` (stereo partly drawn) [F305]: the IC50 worked out at 8.08 µM.
For `Cc1ccc(-c2noc(C3C[C@H](O)CN3)n2)cc1NC(=O)c1cnc2ccc(F)cn12` (stereo partly drawn) [F306] the value was 8.37 µM.
In the case of `COC(=O)N1CC(c2nc(-c3ccc(C)c(NC(=O)c4cnc5ccc(CCC(=O)O)cn45)c3)no2)C1` [F307], the IC50 is more than 10 µM.
Turning to `COC(=O)N1CC(c2nc(-c3ccc(C)c(NC(=O)c4cnc5ccc(CCc6nn[nH]n6)cn45)c3)no2)C1` [F308], the IC50 was more than 10 µM.
The same measure for `COC(=O)CS(=O)(=O)N1CC(c2nc(-c3ccc(C)c(NC(=O)c4cnc5ccccn45)c3)no2)C1` [F309]: more than 10 µM; for `COC(=O)N1CC(c2nc(-c3ccc(C)c(NC(=O)c4cnc5ccc(CCCc6nn[nH]n6)cn45)c3)no2)C1` [F310]: more than 10 µM.
